Measured values as given in the supplement of paper PMC11451515.

Tested on: P12-Ichikawa
Assay: cell viability relative to DMSO control; higher = less cytotoxic
Details: 48 h
Summary of the method: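 In 1536-well plates, 5 μl of leukemia cells were seeded per well: 500 cells/well for NOMO1 or SEM and 1000 cells/well for P12-Ichikawa. Each line had first been adapted for at least four passages in each medium. Library compounds in DMSO were pin-dosed at 11 threefold concentrations between 47 μM and 0.79 nM, and CellTiter-Glo One luminescence was read after 48 h at 37°C. Viability is a per-plate percentage relative to DMSO wells, with cell-free wells as background.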

[1] = HPLM + 10% dialyzed FBS, 0.000781 µM
[2] = HPLM + 10% dialyzed FBS, 0.00234 µM
[3] = HPLM + 10% dialyzed FBS, 0.00702 µM
[4] = HPLM + 10% dialyzed FBS, 0.0211 µM
[5] = HPLM + 10% dialyzed FBS, 0.0632 µM
[6] = HPLM + 10% dialyzed FBS, 0.19 µM
[7] = HPLM + 10% dialyzed FBS, 0.569 µM
[8] = HPLM + 10% dialyzed FBS, 1.71 µM
[9] = HPLM + 10% dialyzed FBS, 5.12 µM
[10] = HPLM + 10% dialyzed FBS, 15.4 µM
[11] = HPLM + 10% dialyzed FBS, 46.1 µM
[12] = RPMI 5 mM glucose + 10% FBS, 0.000781 µM
[13] = RPMI 5 mM glucose + 10% FBS, 0.00234 µM
[14] = RPMI 5 mM glucose + 10% FBS, 0.00702 µM
[15] = RPMI 5 mM glucose + 10% FBS, 0.0211 µM
[16] = RPMI 5 mM glucose + 10% FBS, 0.0632 µM
[17] = RPMI 5 mM glucose + 10% FBS, 0.19 µM
[18] = RPMI 5 mM glucose + 10% FBS, 0.569 µM
[19] = RPMI 5 mM glucose + 10% FBS, 1.71 µM
[20] = RPMI 5 mM glucose + 10% FBS, 5.12 µM
[21] = RPMI 5 mM glucose + 10% FBS, 15.4 µM
[22] = RPMI 5 mM glucose + 10% FBS, 46.1 µM
[23] = RPMI 5 mM glucose + 10% dialyzed FBS, 0.000781 µM
[24] = RPMI 5 mM glucose + 10% dialyzed FBS, 0.00234 µM
[25] = RPMI 5 mM glucose + 10% dialyzed FBS, 0.00702 µM
[26] = RPMI 5 mM glucose + 10% dialyzed FBS, 0.0211 µM
[27] = RPMI 5 mM glucose + 10% dialyzed FBS, 0.0632 µM
[28] = RPMI 5 mM glucose + 10% dialyzed FBS, 0.19 µM
[29] = RPMI 5 mM glucose + 10% dialyzed FBS, 0.569 µM
[30] = RPMI 5 mM glucose + 10% dialyzed FBS, 1.71 µM
[31] = RPMI 5 mM glucose + 10% dialyzed FBS, 5.12 µM
[32] = RPMI 5 mM glucose + 10% dialyzed FBS, 15.4 µM
[33] = RPMI 5 mM glucose + 10% dialyzed FBS, 46.1 µM

Row | SMILES | cell viability [1] | cell viability [2] | cell viability [3] | cell viability [4] | cell viability [5] | cell viability [6] | cell viability [7] | cell viability [8] | cell viability [9] | cell viability [10] | cell viability [11] | cell viability [12] | cell viability [13] | cell viability [14] | cell viability [15] | cell viability [16] | cell viability [17] | cell viability [18] | cell viability [19] | cell viability [20] | cell viability [21] | cell viability [22] | cell viability [23] | cell viability [24] | cell viability [25] | cell viability [26] | cell viability [27] | cell viability [28] | cell viability [29] | cell viability [30] | cell viability [31] | cell viability [32] | cell viability [33]
1 | NC12CC3CC(CC(C3)C1)C2 | 109% | 98.8% | 103% | 103% | 105% | 111% | 108% | 103% | 117% | 114% | 105% | 102% | 119% | 118% | 120% | 119% | 123% | 112% | 113% | 110% | 109% | 107% | 104% | 113% | 109% | 111% | 115% | 116% | 115% | 118% | 115% | 105% | 103%
2 | COc1cc2ncnc(Nc3ccc(F)c(Cl)c3)c2cc1OCCCN1CCOCC1 | 115% | 114% | 120% | 115% | 112% | 113% | 117% | 111% | 100% | 95.4% | 4.05% | 122% | 113% | 109% | 109% | 112% | 109% | 114% | 106% | 104% | 111% | 93.7% | 111% | 116% | 116% | 115% | 113% | 109% | 111% | 112% | 106% | 101% | 86.6%
3 | CC(C)[C@@H](N(CCCN)C(=O)C1=CC=C(C)C=C1)C/2=C(\CC3=CC=CC=C3)C(=O)C4=C(O2)C=C(Cl)C=C4 | 37.7% | 12.6% | 11.5% | 14.2% | 9.91% | 11.7% | 12.2% | 11% | 10.3% | 11.8% | 12.8% | 18.4% | 15.8% | 15% | 18.5% | 18% | 17.6% | 14% | 17.7% | 15.8% | 15.7% | 9.01% | 70.7% | 20.4% | 20.7% | 21.9% | 22.4% | 22.5% | 18.6% | 20.9% | 21.2% | 19.8% | 16.2%
4 | c1cc(OCCN2CCCCC2)cc(-c2n[nH]c3ccc(-c4nc[nH]n4)cc23)c1 | 109% | 114% | 110% | 116% | 117% | 118% | 121% | 116% | 122% | 123% | 124% | 112% | 111% | 118% | 116% | 123% | 114% | 114% | 132% | 128% | 128% | 111% | 99.4% | 111% | 114% | 19.2% | 117% | 116% | 121% | 115% | 108% | 123% | 116%
5 | c1ccc2c(Oc3nc(Nc4ccc(N5CCOCC5)cc4)c4ncn(C5CCCCC5)c4n3)cccc2c1 | 116% | 118% | 126% | 132% | 126% | 121% | 126% | 132% | 134% | 137% | 130% | – | – | – | – | – | – | – | – | – | – | – | – | – | – | – | – | – | – | – | – | – | –
6 | c1ccc(-c2nn3c(c2-c2ccnc4cc(OCCN5CCOCC5)ccc24)CCC3)nc1 | 120% | 114% | 111% | 119% | 112% | 112% | 97% | 109% | 103% | 94.9% | 84.5% | 112% | 117% | 123% | 115% | 112% | 96.2% | 89.8% | 106% | 119% | 73% | 74.6% | 110% | 120% | 122% | 119% | 112% | 113% | 112% | 108% | 102% | 99.3% | 84.8%
7 | CCCCOc1ccc(C(=O)Nc2ccc(F)cc2F)cc1 | 83.2% | 95.7% | 83.5% | 86.5% | 90.6% | 85.3% | 89.1% | 97.1% | 96% | 102% | 67.1% | 78.9% | 91.8% | 82% | 92.9% | 89.4% | 89.5% | 89.4% | 93% | 89% | 88.1% | 84.3% | 84% | 83.7% | 79.2% | 87.1% | 83.9% | 80.2% | 86.7% | 89.3% | 92.5% | 87.3% | 86.6%
8 | CCCn1c(=O)c2[nH]c(-c3cnn(Cc4cccc(C(F)(F)F)c4)c3)nc2n(CC)c1=O | 108% | 106% | 122% | 112% | 112% | 115% | 109% | 106% | 88.1% | 83.3% | 84.7% | 115% | 124% | 123% | 137% | 125% | 118% | 85.6% | 73% | 65.1% | 74.6% | 72.9% | 114% | 109% | 105% | 108% | 107% | 109% | 109% | 103% | 81.4% | 73.6% | 68.8%
9 | CN(C)c1nc(N(C)C)nc(N(C)C)n1 | 108% | 108% | 104% | 104% | 101% | 103% | 94.4% | 94.3% | 89.6% | 94% | 83.5% | 103% | 100% | 98.3% | 95.9% | 90.5% | 93.9% | 98.8% | 87.2% | 87.9% | 89.9% | 93.2% | 90.3% | 99.9% | 95.5% | 99.6% | 97.1% | 91.6% | 91.9% | 85% | 87.9% | 90.7% | 86.8%
10 | CC1(C)OC/2=C(\[C@H](NCC3=CC=CC=C3)[C@@H]1O)C(=O)C4=CC=CC=C4C2=O | 102% | 106% | 107% | 104% | 106% | 108% | 102% | 94% | 96.4% | 47.8% | 6.77% | 100% | 102% | 102% | 115% | 96.4% | 99.8% | 98.8% | 88.3% | 71.8% | 18.7% | 6.26% | 98.5% | 94.9% | 95.1% | 101% | 101% | 101% | 101% | 96.7% | 75.8% | 54.6% | 5.89%
11 | O=P(O)(O)C(O)(Cc1cccnc1)P(=O)(O)[O][Na] (stereo not drawn) | 88.6% | 81.8% | 99.2% | 11.3% | 95.5% | 94.2% | 105% | 100% | 105% | 105% | 110% | 87.4% | 98.6% | 98.9% | 16.4% | 94.5% | 98.3% | 100% | 107% | 108% | 118% | 112% | 85.3% | 91.3% | 91.2% | 17.4% | 97.7% | 100% | 95.1% | 103% | 100% | 104% | 104%
12 | CO[C@@H]1[C@H](N(C)C(=O)c2ccccc2)C[C@H]2O[C@]1(C)n1c3ccccc3c3c4c(c5c6ccccc6n2c5c31)C(=O)NC4 | 113% | 111% | 113% | 112% | 121% | 122% | 122% | 109% | 17.9% | 15% | 18.9% | 112% | 110% | 111% | 117% | 119% | 122% | 124% | 106% | 24.4% | 28.8% | 24.4% | 111% | 125% | 117% | 116% | 123% | 140% | 126% | 111% | 35.7% | 33.1% | 30.2%
13 | CCCn1c(=O)c2[nH]c(C34CC5CC3C[C@@H](C5)C4)nc2n(CCC)c1=O | 111% | 107% | 100% | 97.8% | 112% | 110% | 107% | 99.5% | 93.6% | 96.6% | 96.1% | 102% | 113% | 112% | 110% | 136% | 106% | 64.5% | 80.3% | 85.5% | 86.1% | 90% | 94.2% | 101% | 92.4% | 96.9% | 99.9% | 100% | 94.2% | 98.7% | 98% | 93.2% | 88.6%
14 | CN(C)[C@H]\1[C@@H]2[C@@H](O)[C@@H]\3C(=C)C4=C(C(=CC=C4)O)C(=O)C3=C(\O)[C@@]2(O)C(=O)\C(=C1O)C(N)=O | – | – | – | – | – | – | – | – | – | – | – | 115% | 120% | 124% | 126% | 115% | 128% | 120% | 125% | 122% | 111% | 99.1% | 126% | 122% | 119% | 123% | 129% | 128% | 118% | 117% | 125% | 119% | 107%
15 | Cc1nc2c([nH]1)-c1ccccc1N(C(=O)c1ccc(NC(=O)c3ccccc3-c3ccccc3)cc1)CC2 | 114% | 120% | 122% | 117% | 127% | 126% | 124% | 128% | 121% | 128% | 128% | – | – | – | – | – | – | – | – | – | – | – | – | – | – | – | – | – | – | – | – | – | –
16 | CCOC(=O)c1ccc(C#Cc2ccc3c(c2)C(C)(C)CCS3)nc1 | 98.6% | 108% | 102% | 105% | 105% | 118% | 110% | 110% | 108% | 107% | 78.7% | 95.2% | 96.1% | 106% | 109% | 108% | 106% | 101% | 106% | 106% | 110% | 94.5% | 98.8% | 99.9% | 109% | 110% | 108% | 107% | 102% | 113% | 104% | 96.1% | 102%
